Measured values reported in patent US20110250454A1, “PREPARATION OF NEBIVOLOL” (priority 2010, published 2011).
Where a name gives a salt, the structure may show the parent alone.

Legend:
[1] = Particle size distribution (laser diffraction, Malvern instrument); assay type: physicochemical; conditions: Hydrochloride; for particle size distribution D10: 10 volume percent of particles smaller than value; for particle size distribution D50: 50 volume percent of particles smaller than value; for particle size distribution D90: 90 volume percent of particles smaller than value
Description: The D10, D50, and D90 values are useful ways for indicating particle size distributions. D90 refers to at least 90 volume percent of the particles having a size smaller than the given value. Likewise, D10 refers to 10 volume percent of the particles having a size smaller than the given value. D50 refers to 50 volume percent of the particles having a size smaller than the given value. Methods for determining D10, D50, and D90 include laser diffraction, such as using equipment from Malvern Instruments Ltd. of Malvern, Worcestershire, United Kingdom.

[2] = Specific surface area (BET); assay type: physicochemical; conditions: BET stated for Example 8; Hydrochloride
[3] = natural crystalline form, not micronized; cited from earlier work
[4] = natural crystalline form, not micronized; cited from earlier work; remark: listed apart in the source

| particle size distribution D10 [1] | particle size distribution D50 [1] | particle size distribution D90 [1] | Specific surface area [2] | SMILES | dissolution rate [3] | bioavailability [4] |
| --- | --- | --- | --- | --- | --- | --- |
| 1.87 μm | 4.46 μm | 11.72 μm |  | OC(CNCC(O)C1CCc2cc(F)ccc2O1)C1CCc2cc(F)ccc2O1 (stereo not shown) [Example 53, Nebivolol Hydrochloride] |  |  |
| 3.94 μm | 19.1 μm | 48.4 μm | 1.2580 m^2/g | OC(CNCC(O)C1CCc2cc(F)ccc2O1)C1CCc2cc(F)ccc2O1 (stereo not shown) [Example 8, Nebivolol Hydrochloride] |  |  |
| 1.753 μm | 4.571 μm | 15.180 μm |  | OC(CNCC(O)C1CCc2cc(F)ccc2O1)C1CCc2cc(F)ccc2O1 (stereo not shown) [Example 52, Nebivolol Hydrochloride] |  |  |
| 1.314 μm | 3.363 μm | 7.80 μm |  | OC(CNCC(O)C1CCc2cc(F)ccc2O1)C1CCc2cc(F)ccc2O1 (stereo not shown) [Example 54, Nebivolol Hydrochloride] |  |  |
| 1.23 μm | 3.17 μm | 10.75 μm | 3.68 m^2/g | OC(CNCC(O)C1CCc2cc(F)ccc2O1)C1CCc2cc(F)ccc2O1 (stereo not shown) [Example 56, Nebivolol Hydrochloride] |  |  |

Continued, compound first:

| SMILES | particle size distribution D10 [1] | particle size distribution D50 [1] | particle size distribution D90 [1] | Specific surface area [2] | dissolution rate [3] | bioavailability [4] |
| --- | --- | --- | --- | --- | --- | --- |
| OC(CNCC(O)C1CCc2cc(F)ccc2O1)C1CCc2cc(F)ccc2O1 (stereo not shown) [Example 60, Nebivolol Hydrochloride] | 1.43 μm | 3.52 μm | 9.35 μm |  |  |  |
| OC(CNCC(O)C1CCc2cc(F)ccc2O1)C1CCc2cc(F)ccc2O1 (stereo not shown) [Example 55, Nebivolol Hydrochloride] | 2.37 μm | 6.29 μm | 25.76 μm |  |  |  |
| OC(CNCC(O)C1CCc2cc(F)ccc2O1)C1CCc2cc(F)ccc2O1 (stereo not drawn) [nebivolol hydrochloride, (1RS,1′RS)-1,1′-[(2RS,2′SR)-bis(6-fluoro-3,4-dihydro-2H-1-benzopyran-2-yl)]-2,2′-iminodiethanol] |  |  |  |  | poor | poor |
